These results are taken from patent US20240116918A1, “SUBSTITUTED TRICYCLIC COMPOUND AS PRMT5 INHIBITOR AND USE THEREOF” (NANJING SANHOME PHARMACEUTICAL CO., LTD., priority 2019, published 2024).

One series deals with PRMT5 (Homo sapiens (Human), UniProt O14744). Nature of the series: In vitro evaluation of kinase activity (PRMT5 enzymatic assay, [3H]-SAM FlashPlate). It is filed as biochemical. As to conditions: polypeptide substrate H4(1-21)S1ac 100 nM, [3H]-SAM 250 nM, 25° C., 60 min; read-out: Enzyme IC50 PRMT5. The procedure: Compounds: the compounds of the present invention prepared in the above examples. Each compound was formulated into a 10 mM stock solution with DMSO, and finally diluted into 10 concentrations for detection, with the final concentrations being 10000.00 nM, 3333.33 nM, 1111.11 nM, 370.37 nM, 123.46 nM, 41.15 nM, 13.72 nM, 4.57 nM, 1.52 nM, and 0.51 nM.
PRMT5, sequence (O14744 whole entry): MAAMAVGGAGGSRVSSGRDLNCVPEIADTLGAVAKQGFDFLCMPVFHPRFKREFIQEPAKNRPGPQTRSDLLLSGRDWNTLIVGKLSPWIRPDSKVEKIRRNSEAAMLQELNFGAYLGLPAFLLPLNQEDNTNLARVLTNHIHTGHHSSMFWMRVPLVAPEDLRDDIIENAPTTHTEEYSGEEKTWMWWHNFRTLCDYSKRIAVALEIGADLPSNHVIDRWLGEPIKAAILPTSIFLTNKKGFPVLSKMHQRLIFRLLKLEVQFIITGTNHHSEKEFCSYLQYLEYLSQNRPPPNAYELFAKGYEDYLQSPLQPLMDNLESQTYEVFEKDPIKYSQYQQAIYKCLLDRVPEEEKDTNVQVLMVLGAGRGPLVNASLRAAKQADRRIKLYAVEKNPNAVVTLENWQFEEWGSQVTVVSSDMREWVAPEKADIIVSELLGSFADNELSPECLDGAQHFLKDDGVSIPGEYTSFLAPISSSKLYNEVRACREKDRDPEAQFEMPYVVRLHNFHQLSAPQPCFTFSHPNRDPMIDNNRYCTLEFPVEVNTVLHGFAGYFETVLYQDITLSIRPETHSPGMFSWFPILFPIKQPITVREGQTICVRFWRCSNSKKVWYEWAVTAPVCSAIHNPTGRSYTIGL
PRMT5, sequence (Q9BQA1 whole entry partner): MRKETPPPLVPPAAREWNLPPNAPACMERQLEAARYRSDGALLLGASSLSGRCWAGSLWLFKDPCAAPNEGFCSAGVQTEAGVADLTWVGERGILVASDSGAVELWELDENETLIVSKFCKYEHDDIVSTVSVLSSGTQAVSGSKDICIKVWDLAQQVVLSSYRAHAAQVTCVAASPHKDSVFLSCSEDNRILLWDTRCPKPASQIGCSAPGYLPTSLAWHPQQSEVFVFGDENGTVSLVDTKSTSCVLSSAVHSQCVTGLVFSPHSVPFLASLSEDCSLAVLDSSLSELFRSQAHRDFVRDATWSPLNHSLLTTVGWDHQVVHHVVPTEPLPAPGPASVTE
Reagents and consumables: PRMTS, purchased from Active Motif, Cat. No. 31921; polypeptide substrate H4(1-21)S1ac, purchased from Gill Biochemical (Shanghai) Co., Ltd., Cat. No. 342095; [^3H]-SAM, purchased From PerkinElmer, Cat. No. NET155V001MC; SAM, purchased from Sigma, Cat. No. A7007-100MG; SAH, purchased from Sigma, Cat. No. A9384-25MG; DTT, purchased from Sangon Bioengineering (Shanghai) Co., Ltd., Cat. No. A620058-0005. Corning-3657, purchased from Corning, Cat. No. 3657; Echo Qualified 384-Well, purchased from Labcyte, Cat. No. P-05525; FlashPlate, purchased from Perkin Elmer, Cat. No. SMP410J001PK.
2.1. Preparation of reaction buffer and reaction stop solution: the composition of 1× reaction buffer was 10 mM Tris-HCl, pH 8.0; 0.01% Tween-20; and 1 mM DTT. The composition of the reaction stop solution was 125 μM […] solution.
The compounds were dissolved in 100% DMSO to prepare 10 mM stock solutions and then diluted to desired concentrations on an Echo 384 well plate.
250 nL of the compounds diluted above were transferred from the Echo 384 well plate to a 384 well reaction plate using the Echo550 instrument.
PRMT5 was added to 1× reaction buffer to form 1.67× enzyme solution.
The polypeptide substrate and [^3H]-SAM were added to 1× reaction buffer to form 2.5× substrate solution (the final concentrations were 100 nM and 250 nM, respectively).
15 μL of 1.67× enzyme solution was added to the wells of a 384 well reaction plate. For control wells without enzymatic activity, the enzyme solution was replaced with 15 μL of 1× reaction buffer. The plate was centrifuged at 1000 rpm for 1 min and incubated at room temperature for 15 min. […]

The target in a further series is hERG potassium channel (Homo sapiens (Human), UniProt Q12809).
hERG potassium channel, sequence (Q12809 whole entry): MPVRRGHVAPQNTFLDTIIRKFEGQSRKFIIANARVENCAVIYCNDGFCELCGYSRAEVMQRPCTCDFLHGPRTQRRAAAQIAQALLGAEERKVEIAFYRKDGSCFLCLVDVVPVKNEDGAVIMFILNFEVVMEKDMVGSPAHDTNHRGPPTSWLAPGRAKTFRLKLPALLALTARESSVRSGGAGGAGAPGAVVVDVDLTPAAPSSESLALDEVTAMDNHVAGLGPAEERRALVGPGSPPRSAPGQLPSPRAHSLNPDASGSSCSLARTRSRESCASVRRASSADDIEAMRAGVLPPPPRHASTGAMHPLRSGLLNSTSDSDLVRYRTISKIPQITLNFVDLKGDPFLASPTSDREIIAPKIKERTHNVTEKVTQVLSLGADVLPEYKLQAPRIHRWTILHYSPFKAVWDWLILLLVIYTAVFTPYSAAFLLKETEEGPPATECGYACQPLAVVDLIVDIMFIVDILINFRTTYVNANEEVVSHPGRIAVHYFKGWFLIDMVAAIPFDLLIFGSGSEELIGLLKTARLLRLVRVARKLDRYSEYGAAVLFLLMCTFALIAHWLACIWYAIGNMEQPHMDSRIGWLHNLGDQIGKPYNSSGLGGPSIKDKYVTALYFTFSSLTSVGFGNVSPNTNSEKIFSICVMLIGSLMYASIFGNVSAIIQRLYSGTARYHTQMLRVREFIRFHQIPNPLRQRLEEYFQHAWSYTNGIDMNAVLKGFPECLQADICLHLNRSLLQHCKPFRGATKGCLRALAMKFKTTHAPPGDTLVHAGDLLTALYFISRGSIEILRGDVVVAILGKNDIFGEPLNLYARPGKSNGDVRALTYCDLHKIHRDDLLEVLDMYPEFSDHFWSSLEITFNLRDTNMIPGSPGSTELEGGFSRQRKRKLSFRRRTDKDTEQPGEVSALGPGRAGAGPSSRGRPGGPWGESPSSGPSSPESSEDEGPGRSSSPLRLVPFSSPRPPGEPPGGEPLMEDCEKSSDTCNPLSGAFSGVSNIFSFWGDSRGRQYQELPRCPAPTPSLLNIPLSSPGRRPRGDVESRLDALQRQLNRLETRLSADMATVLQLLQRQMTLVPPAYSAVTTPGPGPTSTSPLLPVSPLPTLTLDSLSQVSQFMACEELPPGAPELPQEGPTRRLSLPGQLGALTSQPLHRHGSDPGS

Method for hERG potassium channel: Preparation of test solvents: preparation of extracellular fluid (mM): 137 NaCl, 4 KCl, 1.8 CaCl2, 1 MgCl2, 10 glucose and 10 HEPES (pH 7.4); preparation of intracellular fluid (mM): 130 KCl, 1 MgCl2, 5 EGTA, 5 MgATP and 10 HEPES (pH 7.2); preparation of negative control: extracellular fluid+0.3% DMSO; positive control: quinidine.
Compound treatment: The compound was weighed and dissolved in DMSO to prepare a 10 mM stock solution, which was diluted with DMSO to form secondary stock solutions with concentrations of 3.3, 1.1, 0.37 and 0.12 mM. 90 μL each of the stock solution and the secondary stock solutions was diluted into 30 mL of extracellular fluid for electrophysiological detection. The final concentrations of the compound were 30, 10, 3.3, 1.1 and 0.37 μM, and the final concentration of DMSO was 3:1000.
Stably transfected cell culture: The cell line was originated from HEK-293 cells overexpressing hERG potassium ion channel. […] The cells were cultured in an incubator at 37° C. and 5% CO2. When the cell density reaches 80% of the petri dish, the cells were first pre-washed with phosphate buffered saline (PBS), then digested with trypsin/EDTA for 2-3 min. Cell culture medium was added to stop the digestion. The cells were gently blown down and transferred to a centrifuge tube, and centrifuged at 1000 rpm for 3 min. The supernatant was discarded, cell culture medium was added, and the cells were mixed uniformly by gentle tapping. After that, the mixture was transferred to a petri dish for subculture, or the cells were dripped on a round glass slide and placed on a petri dish for the cells to adhere for experiments.
Experiments on electrophysiological manual patch-clamp system: The stably transfected cells were inoculated on a glass slide with a cell density lower than 50%, and cultured overnight. The experimental cells were transferred to a bath of about 1 mL embedded in an inverted microscope platform, and the extracellular fluid was perfused at a perfusion rate of 2.7 mL/min. After 5 minutes of stabilization, the experiment was started. Membrane currents were recorded using HEKA EPC-10 patch clamp amplifier and [sequence] acquisition system. All the experiments were performed at room temperature (22-24° C.). Electrodes were drawn straight using P-97 microelectrode drawing instrument (BF150-110-10) in the experiments. The inner diameter of the electrode was 1-1.5 mm, and the pipette resistance after filling with the inner liquid was 2-4 MΩ. The electrophysiological stimulation scheme of hERG potassium channel included: first setting the membrane voltage at −80 mV, applying a stimulation to the cells at +20 mV voltage for 2 s to activate the hERG potassium channel, and then repolarizing to −50 mV for 5 s to generate an outward tail current. The stimulation frequency was once every 15 s. The current value was the peak value of the tail current. The channel currents were recorded in the whole-cell recording mode. Firstly, the extracellular fluid was perfused (about 2 mL per minute) while recording was continued. When the current was stabilized (the current decay (Run-Down) was less than 5% within 5 minutes), the peak value of the tail current was the control current value. Then, the extracellular fluid containing the drug to be tested was perfused while the recording was continued until the inhibitory effect of the drug on the hERG current reached a steady state. At this time, the peak value of the tail current was the current value after drug addition. […]

For the compound `CC(=O)N1CCC(Nc2cc3c(cn2)C2(CC2)CN(C[C@H](O)CN2CCc4ccccc4C2)C3=O)CC1` [Example 1, (R)-7′-((1-acetylpiperidin-4-yl)amino)-2′-(3-(3,4-dihydroisoquinolin-2(1H)-yl)-2-hydroxypropyl)-2′,3′-dihydro-1′H-spiro[cyclopropane-1,4′-[2,6]naphthyridin]-1′-one], the half-inhibitory concentration (IC50) (in general, the concentration that inhibits the measured activity by half) on PRMT5 stood at 0.0327 µM. For the compound `CC(=O)N1CC2(CC(Nc3cc4c(cn3)C3(CC3)CN(C[C@H](O)CN3CCc5ccccc5C3)C4=O)C2)C1` [Example 2, (R)-7′-((2-acetyl-2-azaspiro[3.3]hept-6-yl)amino)-2′-(3-(3,4-dihydroisoquinolin-2(1H)-yl)-2-hydroxypropyl)-2′,3′-dihydro-1′H-spiro[cyclopropane-1,4′-[2,6]naphthyridin]-1-one], the IC50 at PRMT5 amounted to 0.0497 µM. In addition, the “inhibitory effect on the hERG potassium channel (in words)” value at hERG potassium channel is “weak inhibitory effect”.
